The record followed here is article PMC222928 (BMC Biochemistry, 2003).

Data set [1] concerns the target T1, aaTHEP1 (Aquifex aeolicus, UniProt O67322).
T1 sequence (O67322 1-178): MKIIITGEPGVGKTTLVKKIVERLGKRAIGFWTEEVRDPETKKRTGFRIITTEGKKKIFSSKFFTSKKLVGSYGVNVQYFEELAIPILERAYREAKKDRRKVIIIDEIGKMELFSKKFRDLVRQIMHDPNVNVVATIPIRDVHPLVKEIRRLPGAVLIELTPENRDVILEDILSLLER
Briefly: inhibition of [γ-32P]ATP hydrolysis, TLC on PEI-cellulose. Type of data set: biochemical.

The target in data set [2] is T1, aaTHEP1. Description: inhibition of [γ-32P]ATP hydrolysis, TLC autoradiography. It counts as biochemical. The settings on record: 5 and 1000 μM ATP, 5 and 1000 μM GDP, 70°C, 5 min.
Substrate in the data set “purified protein”: Nc1ncnc2c1ncn2[C@@H]1O[C@H](COP(=O)(O)OP(=O)(O)OP(=O)(O)O)[C@@H](O)[C@H]1O
Description: purified protein. The settings on record: 70°C, 25 mM MgCl2, 5 mM KCl, pH 7.0, labelled compound.

On to `Nc1ccn([C@@H]2O[C@H](COP(=O)(O)OP(=O)(O)OP(=O)(O)O)[C@@H](O)[C@H]2O)c(=O)n1` [CTP], for which, at aaTHEP1 [1], the inhibitory constant (Ki) (in general, the equilibrium dissociation constant of an inhibitor or competing ligand from its target) stood at 6 ± 2 µM.
For `Nc1nc2c(ncn2[C@@H]2O[C@H](COP(=O)(O)OP(=O)(O)O)[C@@H](O)[C@H]2O)c(=O)[nH]1` [GDP], the “inhibition of [γ-32P]ATP hydrolysis, TLC autoradiography” value against aaTHEP1 [2] was “GDP also inhibits ATP-hydrolysis, whereas GMP, AMP, and UMP show no inhibition”.
As to `Nc1nc2c(ncn2[C@@H]2O[C@H](COP(=O)(O)OP(=O)(O)OP(=O)(O)O)[C@@H](O)[C@H]2O)c(=O)[nH]1` [GTP], affinity on aaTHEP1 [1] was put at a Ki of 57 ± 20 µM.
Same read-out and setting: as for `O=c1ccn([C@@H]2O[C@H](COP(=O)(O)OP(=O)(O)OP(=O)(O)O)[C@@H](O)[C@H]2O)c(=O)[nH]1` [UTP], the figure is 5 ± 2 µM.
In turn, `Nc1ncnc2c1ncn2[C@H]1C[C@H](O)[C@@H](COP(=O)(O)OP(=O)(O)OP(=O)(O)O)O1` [dATP] showed an inhibition constant (Ki) on aaTHEP1 [1] of 3 ± 0.2 µM.
Take `Nc1ccn([C@H]2C[C@H](O)[C@@H](COP(=O)(O)OP(=O)(O)OP(=O)(O)O)O2)c(=O)n1` [dCTP]: on aaTHEP1 [1], the affinity corresponds to a Ki of 9 ± 3 µM. Compared with the last molecule, the Ki is about 3-fold higher.
At aaTHEP1 [1], `Nc1nc2c(ncn2[C@H]2C[C@H](O)[C@@H](COP(=O)(O)OP(=O)(O)OP(=O)(O)O)O2)c(=O)[nH]1` [dGTP] had an inhibitory constant (Ki) of 18 ± 2 µM.
As to `Cc1cn([C@H]2C[C@H](O)[C@@H](COP(=O)(O)OP(=O)(O)OP(=O)(O)O)O2)c(=O)[nH]c1=O` [dTTP], the Ki at aaTHEP1 [1] worked out at 6 ± 2 µM.

B1: aaTHEP1 (Aquifex aeolicus VF5) (protein)
chain: T1 sequence (O67322 1-178)
Turning to B1, in “purified protein”, the Michaelis constant (Km) – broadly, the concentration of substrate that gives half-maximal velocity – came to 5.5 µM and the catalytic constant (kcat) (in general, the maximal rate divided by the concentration of active sites) stood at 0.005 s⁻¹.
